Laboratory results as given in patent publication US8829033B2, “N-benzylamide substituted derivatives of 2-(acylamido)acetic acid and 2-(acylamido)propionic acids: potent neurological agents” (The University of North Carolina at Chapel Hill, priority 2009, dated 2014).
Read-outs that look alike come from different tables or passages of the source.

What was measured:
[1] = Neurological toxicity, rotorod test, mice (ip); format: in vivo; details: male, CF No 1, mouse, in vivo, read-out: Mice (ip) Tox, TD50
Method: (§1) Tests are conducted in groups of at least 8 mice or rats to determine the intrinsic neurotoxicity (neuromuscular impairment) after administration of the test compound by the route of administration to be used in the pharmacology studies. Neurotoxicity is determined in male CF No 1 mice by the rotarod procedure. Inability of the mouse to maintain its equilibrium in 3 trials during 1 min on this rotating rod (6 rpm) is used as an indication of such impairment. In Sprague-Dawley rats, minimal motor impairment (MMI) is determined by overt evidence of ataxia, abnormal gait, and stance.

Mice [2] = experiment: Maximal electroshock seizure (MES) test, mice (ip); details: ip; for Mice (ip) PI: PI=TD50/ED50;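 as to all read-outs here: male albino CF No. 1 mice dosed ip, MES stimulus 50 mA at 60 Hz lasting 0.2 s, efficacy endpoint is loss of hind leg tonic extension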
Method: (§2) The maximal electroconvulsive shock (MES) test is regarded as a standard screen for anticonvulsant activity in terms of inhibition of seizure spread in generalized tonic-clonic seizures.
(§3) Groups of at least 8 male albino CF No. 1 mice or male albino Sprague-Dawley rats are treated with 10 mL/kg i.p. or 4 mL/kg p.o. of the test compound solution, respectively. The electrical stimulus in the MES test is 50 mA at 60 Hz for mice and 150 mA at 60 Hz for rats, both delivered for 0.2 sec. Abolition of the hind leg tonic extensor component of the seizure is used as the endpoint.

Mice [3] = details: rotorod, Ref 30, 16, 32; cited from earlier work
Rat [4] = details: Ref 16, 32; cited from earlier work
Mice [5] = details: Ref 30, 16, 32; cited from earlier work
Rat [6] = details: Ref 16, 32; cited from earlier work; remark: listed apart in the source
Rat [7] = experiment: Maximal electroshock seizure (MES) test, rat (po); format: in vivo
Method: as §2, §3

Rats = experiment: Partial sciatic nerve ligation model (rats, ip); format: in vivo; details: dose 12 (mg), at 1 h, p < 0.05
Mice [8] = experiment: Formalin test (mice, ip); format: in vivo; details: mice, ip; dose 15 (mg)
Method: Compounds of the present invention were active in treating pain in a formalin test carried out in accordance with standard techniques, as described in S. Hunskaar et al., J. Neurosci. Methods 14: 69-76 (1985). Briefly, 0.5% formalin is injected into the mouse hind paw to elicit a bi-phasic licking response, where the first acute phase is thought to correspond to the direct stimulation of peripheral fibers and the second (inflammatory) phase is caused by the release of inflammatory mediators.
Spinal/supraspinal plasticity of nociception is considered as a molecular basis for neuropathic pain particularly during the second (late) phase of the test (Dubuisson & Dennis, 1977; Coderre et al., 1990; Coderre & Melzack, 1992), during which most clinically used drugs against neuropathic pain are active.

Mice [9] = test system: Mice
Method: as §2, §3

[10] = Behavioral toxicity, rat (po); format: in vivo; details: Sprague-Dawley, in vivo, po, read-out: Rat (po) Tox, TD50
Method: as §1

COC[C@@H](NC(C)=O)C(=O)NCc1ccc(OCc2cccc(F)c2)cc1 [(R)-3, (R)-2-Acetamido-N-(4-(3-fluorobenzyloxy)benzyl)-3-methoxypropanamide]
TD50 [1]: 26 mg/kg
Mice (ip) MES, ED50 (Mice [2]): 13 [0.25]
Mice (ip) PI (Mice [2]): ~2
Mice (ip) Tox, TD50 (Mice [3]): 27 [0.25] mg/kg
Rat (po) Tox, TD50 (Rat [4]): >500 mg/kg
Mice (ip) Mes, ED50 (Mice [5]): 4.5 [0.5] mg/kg
Rat (po) MES, ED50 (Rat [6]): 3.9 [2.0] mg/kg
Rat (po) PI (Rat [7]; PI=TD50/ED50): >36
Partial Sciatic Nerve Ligation Assay: attenuation of mechanical allodynia (Rats): 11.2 fold attentaution of mechanical
Formalin Assay Acute (%) (Mice [8]): 35%
Formalin Assay Inflam. (%) (Mice [8]): 44%

COC[C@@H](NC(C)=O)C(=O)NCc1ccc(C2(C(F)(F)F)N=N2)cc1 [(R)-9, (R)-2-Acetamido-3-methoxy-N-(4-(3-(trifluoromethyl)-3H-diazirin-3-yl)benzyl)propanamide]
TD50 [1]: 68 mg/kg
Mice (ip) PI (Mice [2]): 4.4
Mice (ip) MES, ED50 (Mice [9]): 15.05 [0.25] (13.93- 16.39)
TD50 [10]: > 30 mg/kg
ED50 (Rat [7]; read-out: Rat (po) MES, ED50): > 30 mg/kg
melting point: 195 °C (dec.)
